Legend:
Assay type in all cases: biochemical
JAK1 = target: T1, JAK1 (Homo sapiens, UniProt P23458); experiment: JAK1 inhibition (Table 4); conditions: read-out: JAK1 Ki
T1 construct: made in house; host or cells: SF9 insect cells (baculovirus)

TYK2 = target: T2, TYK2 (Homo sapiens, UniProt P29597); experiment: TYK2 inhibition (Table 4)
T2 construct: made in house; host or cells: SF9 insect cells (baculovirus)
T2 sequence (P29597 873-1187): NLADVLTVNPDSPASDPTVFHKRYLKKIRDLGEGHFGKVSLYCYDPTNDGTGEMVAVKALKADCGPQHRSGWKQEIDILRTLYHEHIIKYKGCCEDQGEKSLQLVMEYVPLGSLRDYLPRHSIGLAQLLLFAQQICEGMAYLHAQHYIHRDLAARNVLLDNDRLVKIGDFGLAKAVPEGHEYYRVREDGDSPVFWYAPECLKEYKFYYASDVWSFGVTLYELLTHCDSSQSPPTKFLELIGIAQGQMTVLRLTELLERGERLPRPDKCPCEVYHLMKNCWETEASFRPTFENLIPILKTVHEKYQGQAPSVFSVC

JAK2 = target: T3, JAK2 (Homo sapiens, UniProt O60674); experiment: JAK2 inhibition (Table 4); conditions: read-out: JAK2 Ki
T3 construct: made in house; host or cells: SF9 insect cells (baculovirus)

JAK3 = target: T4, JAK3 (Homo sapiens, UniProt P52333); experiment: JAK3 inhibition (Table 4); conditions: read-out: JAK3 Ki
T4 construct: made in house; host or cells: SF9 insect cells (baculovirus)
T4 sequence (P52333 783-1124): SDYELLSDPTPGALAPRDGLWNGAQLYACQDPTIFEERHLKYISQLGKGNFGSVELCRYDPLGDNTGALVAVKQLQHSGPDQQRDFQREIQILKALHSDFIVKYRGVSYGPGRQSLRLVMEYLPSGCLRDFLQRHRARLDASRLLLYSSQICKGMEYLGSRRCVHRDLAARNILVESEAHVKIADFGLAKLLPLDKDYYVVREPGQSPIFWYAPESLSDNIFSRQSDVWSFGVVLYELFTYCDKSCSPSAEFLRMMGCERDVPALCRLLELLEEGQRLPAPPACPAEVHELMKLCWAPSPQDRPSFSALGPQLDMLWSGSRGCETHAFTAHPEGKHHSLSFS

T3 sequence (O60674 812-1132): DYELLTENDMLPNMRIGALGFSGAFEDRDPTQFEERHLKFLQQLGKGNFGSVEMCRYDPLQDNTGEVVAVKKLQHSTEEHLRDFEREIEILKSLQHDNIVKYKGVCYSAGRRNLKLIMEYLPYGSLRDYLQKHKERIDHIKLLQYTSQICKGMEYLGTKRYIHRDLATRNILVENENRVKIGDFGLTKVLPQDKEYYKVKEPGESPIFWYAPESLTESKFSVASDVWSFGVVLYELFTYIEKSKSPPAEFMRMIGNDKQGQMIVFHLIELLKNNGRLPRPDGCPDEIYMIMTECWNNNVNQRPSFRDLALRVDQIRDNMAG
T1 sequence (P23458 852-1154): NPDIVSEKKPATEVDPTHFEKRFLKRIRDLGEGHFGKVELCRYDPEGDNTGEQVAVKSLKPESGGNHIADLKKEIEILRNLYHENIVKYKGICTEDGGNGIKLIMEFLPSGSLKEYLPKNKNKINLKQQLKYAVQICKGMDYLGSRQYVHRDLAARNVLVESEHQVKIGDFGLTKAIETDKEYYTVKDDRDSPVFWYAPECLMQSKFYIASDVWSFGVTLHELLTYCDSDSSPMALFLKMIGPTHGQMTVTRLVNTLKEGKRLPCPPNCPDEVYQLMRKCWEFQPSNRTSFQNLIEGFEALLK

| Ki (JAK1) [nM] | Ki (TYK2) [nM] | Ki (JAK2) [nM] | Ki (JAK3) [nM] | SMILES |
| --- | --- | --- | --- | --- |
| 40.8 | 1010 | 205 | 598 | Cc1nc2cnc3[nH]ccc3c2n1C1(C)CCN(Cc2ccnc(C#N)c2)CC1 [Example 758, 4-[4-Methyl-4-(2-methyl-6H-1,3,5,6-tetraaza-as-indacen-1-yl)-piperidin-1-ylmethyl]-pyridine-2-carbonitrile] |
| 7.13 | 109 | 118 | 37.2 | CC(O)c1nc2cnc3[nH]ccc3c2n1C1CCN(CCC(F)(F)F)CC1 (stereo not drawn) [Example 759, 1-{1-[1-(3,3,3-Trifluoro-propyl)-piperidin-4-yl]-1,6-dihydro-1,3,5,6-tetraaza-as-indacen-2-yl}-ethanol] |
| 3.46 | 25.4 | 23 | 21.7 | OCc1nc2cnc3[nH]ccc3c2n1C1CCN(CCC(F)(F)F)CC1 [Example 760, {1-[1-(3,3,3-Trifluoro-propyl)-piperidin-4-yl]-1,6-dihydro-1,3,5,6-tetraaza-as-indacen-2-yl}-methanol] |
| 1.59 | 10 | 8.5 | 22.6 | OCc1nc2cnc3[nH]ccc3c2n1C1CCN(CC(F)(F)F)CC1 [Example 761, {1-[1-(2,2,2-Trifluoro-ethyl)-piperidin-4-yl]-1,6-dihydro-1,3,5,6-tetraaza-as-indacen-2-yl}-methanol] |
| 0.89 | 4.88 | 2.65 | 5.51 | Cc1nc2cnc3[nH]ccc3c2n1C1CCN(CC(F)F)CC1 [Example 762, 1-[1-(2,2-Difluoro-ethyl)-piperidin-4-yl]-2-methyl-1,6-dihydro-1,3,5,6-tetraaza-as-indacene] |
| 12.5 | 223 | 42.2 | 278 | COCCN(C)C(=O)NC1CCC(n2cnc3cnc4[nH]ccc4c32)CC1 (stereo not drawn) [Example 763, 1-(2-Methoxy-ethyl)-1-methyl-3-[4-(6H-1,3,5,6-tetraaza-as-indacen-1-yl)-cyclohexyl]-urea] |
| 88.1 | 859 | 441 | 609 | Cc1nc2cnc3[nH]ccc3c2n1C1CCN(C(=O)NCC(F)(F)F)CC1 [Example 764, 4-(2-Methyl-6H-1,3,5,6-tetraaza-as-indacen-1-yl)-piperidine-1-carboxylic acid (2,2,2-trifluoro-ethyl)-amide] |
| 275 | 2840 | 872 | 2210 | Cc1nc2cnc3[nH]ccc3c2n1C1CCN(C(=O)NCCC(F)(F)F)CC1 [Example 765, 4-(2-Methyl-6H-1,3,5,6-tetraaza-as-indacen-1-yl)-piperidine-1-carboxylic acid (3,3,3-trifluoro-propyl)-amide] |
| 0.97 | 21.1 | 3.07 | 68.5 | O=S1(=O)CCN(C2CCC(n3cnc4cnc5[nH]ccc5c43)CC2)CC1 (stereo not drawn) [Example 766, 1-[4-(1,1-Dioxo-thiomorpholin-4-yl)-cyclohexyl]-1,6-dihydro-1,3,5,6-tetraaza-as-indacene] |
| 2.81 | 36.9 | 10.7 | 155 | Cc1nc2cnc3[nH]ccc3c2n1C1CCC(N2CCC(F)(F)CC2)CC1 (stereo not drawn) [Example 767, 1-[4-(4,4-Difluoro-piperidin-1-yl)-cyclohexyl]-2-methyl-1,6-dihydro-1,3,5,6-tetraaza-as-indacene] |
| 1.77 | 23.4 | 6.47 | 85.9 | Cc1nc2cnc3[nH]ccc3c2n1C1CCC(N2CCC(C#N)CC2)CC1 (stereo not drawn) [Example 768, 1-[4-(2-Methyl-6H-1,3,5,6-tetraaza-as-indacen-1-yl)-cyclohexyl]-piperidine-4-carbonitrile] |
| 9.6 | 62.5 | 16.6 | 104 | CNC(=O)OC1CCC(n2cnc3cnc4[nH]ccc4c32)CC1 (stereo not drawn) [Example 769, Methyl-carbamic acid 4-(6H-1,3,5,6-tetraaza-as-indacen-1-yl)-cyclohexyl ester] |

— US8461328B2, “Tricyclic heterocyclic compounds, compositions and methods of use thereof” (Genentech, Inc., priority 2010, dated 2013)
